Source: patent publication US12329799B2, “Peptidyl inhibitors of calcineurin-NFAT interaction” (Ohio State Innovation Foundation, priority 2018, dated 2025)
Where two headings read alike, the source gives them in different places. Positions of bridges follow the written chain, without caps; N, C: chain ends. Non-standard residues stand in square brackets, D forms with d. Residues, ends and D or L forms follow the SMILES beside them. Chains are numbered I, II in the order given. *: point of attachment. FITC = O=C1OC2(c3ccc(O)cc3Oc3cc(O)ccc32)c2ccc(NC(=S)*)cc21; Benzoyl(2,3,4,5,6-F5) = O=C(c1c(F)c(F)c(F)c(F)c1F)*; Benzoyl(2,3-Cl2) = O=C(c1cccc(Cl)c1Cl)*; Phe(4-F) = N[C@@H](Cc1ccc(F)cc1)C(=O)O; 2Nal = N[C@@H](Cc1ccc2ccccc2c1)C(=O)O; Val(3-OH) = CC(C)(O)[C@H](N)C(=O)O; X4 = O=C(c1cc(F)c(F)c(F)c1F)*; Chg = N[C@H](C(=O)O)C1CCCCC1; Tle = CC(C)(C)[C@H](N)C(=O)O; X6 = O=C(c1ccc(Br)c(Cl)c1)*; X5 = Cc1ccc(C(=O)*)c(F)c1F; X1 = O=C(c1ccnc(Cl)c1Cl)*; AEEA = NCCOCCOCC(=O)O; βAla = NCCC(=O)O

Columns and labels:
Calcineurin (GST-CN) = biological target: T1, Calcineurin (GST-CN) (Homo sapiens, UniProt Q08209); assay: Direct binding of FITC-labeled peptides to CN by fluorescence anisotropy/polarization; details: for Kd: Table 5, acyl-ZIZITGPHEEYK(FITC)-NH2 peptides, FA
T1 construct: made in house; host or cells: E. coli BL21
T1 sequence (Q08209 2-347 limits assumed): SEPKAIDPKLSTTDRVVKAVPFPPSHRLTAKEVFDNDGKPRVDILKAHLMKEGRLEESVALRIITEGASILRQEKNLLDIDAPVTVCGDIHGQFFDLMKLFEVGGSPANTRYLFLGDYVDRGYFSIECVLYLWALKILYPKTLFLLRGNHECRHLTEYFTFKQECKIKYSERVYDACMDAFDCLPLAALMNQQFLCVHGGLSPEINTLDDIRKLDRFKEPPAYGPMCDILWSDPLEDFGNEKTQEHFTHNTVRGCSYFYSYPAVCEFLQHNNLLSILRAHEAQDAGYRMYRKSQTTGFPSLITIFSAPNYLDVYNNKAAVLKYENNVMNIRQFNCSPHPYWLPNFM
Method: To facilitate concentration determination and binding analysis by fluorescence anisotropy (FA), a dipeptide Tyr-Lys was added to the C-terminus of ZIZIT (SEQ ID NO:1) and the lysine side chain was labeled with fluorescein isothiocyanate (FITC). The resulting peptide,
Fluorescence Polarization. Fluorescence polarization (FP) experiments were carried out to measure binding affinity in both direct and competitive binding experiments using GST-CN and peptides prepared as mentioned previously. For direct binding, 50 nM FITC-labeled peptide was prepared in PBS, pH 7.4 containing 5 mM DTT and 0.01% Triton-X100 and then added to GST-CN diluted in PBS containing 0.01% Triton-X100. Solutions were incubated for 1 h at RT with gentle mixing and then pipetted into black 384-well microplates. Fluorescence polarization was measured on a TECAN Infinite M1000 plate reader and titration curves were fitted using both KaelidaGraph v 3.6 and GraphPad PRISM to the equation:
[formula] • where FP is the measured fluorescence polarization, Amin is the minimum FP value, Amax is the maximum FP signal, Qb is the quantum yield of the bound fluorophore, Qf is the quantum yield of the free fluorophore, L is the ligand concentration, KD is the dissociation constant and x is the protein concentration.

[1] = Aqueous solubility (turbidity at 780 nm); assay type: physicochemical
Method: The peptide was serially diluted from a DMSO stock into PBS (pH 7.4) containing 5% DMSO and the optical density of the resulting solutions were measured at 780 nm.
Solubility. Peptides were diluted from a DMSO stock into PBS, pH 7.4 and then serially diluted in identical buffer to standardize DMSO concentration in clear, 96-well plates. The solutions were allowed to stand for 1 h at RT without mixing and then turbidity was measured at 780 nm using a Tecan Infinite M1000 plate reader.

Caco-2 cell monolayers = assay: Caco-2 permeability assay; assay type: in vitro ADME
Method: Caco-2 permeability assay. To assay the permeability of test compounds by Caco-2 cell model, Caco-2 cells were cultured to confluency before being trypsinized and seeded onto filter transwell inserts at a density of 30,000 cells/well in DMEM medium. Cells were cultured in a humidified atmosphere with 5% CO2 at 37° C. After overnight attachment, cell medium was replaced with fresh medium at both apical and basolateral sides every other day. The cell monolayers are ready for the assay 20 days post seeding. […] The dosing solution at 10 μM was obtained by diluting 10 mM stock solution in HBSS medium (pH 7.4, 25 mM HEPES) freshly before the assay. Terfenadine (25 ng/mL) and Tolbutamide (50 ng/mL) were added into dosing solution as internal standards. […] The culture medium from either the basolateral side (plate B) or apical side (plate A) were aspirated and then rinsed with HBSS medium once. Afterwards, the dosing medium was added to either basolateral or apical side. Following the incubation, 100 microliter samples from both sides were harvested at time 0 and time 90 min. Samples were quenched with acetonitrile/methanol (1:1 v/v), centrifuged, and analyzed on a Shimadzu reversed-phase HPLC and Sciex API4500 Q trap instrument.
Permeability parameters were calculated using the following equations and shown in Table 10: Papp=(Conc.receiver,90 min*Volumereceiver)/(Time*Membrane Area*Conc.donor,0 min) Efflux Ratio=Papp[B to A]/Papp[A to B]

Serum stability assay = assay type: in vitro ADME; details: 37° C.
Method: Serum Stability Assay. Diluted human serum (25%) (H4522 human serum, Sigma) was centrifuged at 15,000 rpm for 10 min, and the supernatant was collected. A peptide stock solution was diluted into the supernatant to a final concentration of 5 μM and incubated at 37° C. At various time points (0-24 h), 200-μL aliquots were withdrawn and mixed with 100 μL of 15% trichloroacetic acid and incubated at 4° C. overnight. The final mixture was centrifuged at 15,000 rpm for 10 min in a microcentrifuge, and the supernatant was analyzed by reversed-phase HPLC equipped with a C18 column. The amount of remaining peptide (%) was determined by integrating the area underneath the peptide peak (monitored at 214 nm) and comparing with that from the peptide at time 0.

CC[C@H](C)[C@H](NC(=O)[C@@H](NC(=O)c1c(F)c(F)c(F)c(F)c1F)C(C)(C)C)C(=O)N[C@H](C(=O)N[C@H](C(=O)N[C@H](C(=O)NCC(=O)N1CCC[C@H]1C(=O)N[C@@H](Cc1c[nH]cn1)C(=O)N[C@@H](CCC(=O)O)C(=O)N[C@@H](CCC(=O)O)C(=O)N[C@@H](Cc1ccc(O)cc1)C(=O)N[C@@H](CCCCNC(=S)Nc1ccc2c(c1)C(=O)OC21c2ccc(O)cc2Oc2cc(O)ccc21)C(N)=O)[C@@H](C)O)[C@@H](C)CC)C(C)(C)C [Peptide 11] ({Benzoyl(2,3,4,5,6-F5)}-[Tle]I[Tle]ITGPHEEYK(FITC)-NH2) gave a Kd (Calcineurin (GST-CN); read-out: KD) of 32 to 189 nM.
For CC[C@H](C)[C@H](NC(=O)[C@@H](NC(=O)[C@@H](NC(=O)[C@@H](NC(=O)c1ccnc(Cl)c1Cl)C(C)(C)C)C1CCCCC1)C(C)(C)O)C(=O)N[C@H](C(=O)N[C@@H](CCC(N)=O)C(=O)N[C@@H](Cc1c[nH]cn1)C(=O)N[C@H](CC(C)C)C(=O)N[C@@H](CO)C(=O)NCCC(=O)N[C@@H](CCCCNC(=O)CC[C@@H]1NC(=O)[C@@H](CCCNC(=N)N)NC(=O)[C@H](CCCNC(=N)N)NC(=O)[C@@H](CCCNC(=N)N)NC(=O)[C@H](CCCNC(=N)N)NC(=O)[C@H](Cc2ccc3ccccc3c2)NC(=O)[C@@H](Cc2ccccc2)NC1=O)C(N)=O)[C@@H](C)O [Compound 44, (DCNA)-Tle-Chg-Bhv-Ile-Thr-Gln-His-(D-Leu)-Ser-βAla-Lys{[cyclo-(Gln-(D-Arg)-Arg-(D-Arg)-Arg-(2-Nal)-(D-Phe)]}-NH2] (I: X1-[Tle][Chg][Val(3-OH)]ITQH[dL]S[βAla]K-NH2 / II: cyclo([2Nal]R[dR]R[dR]E[dF]); amide I:11-II:6 (inferred); ring closure inferred), the “solubility relative to CNI103” value [1] was “less soluble”.
CC[C@H](C)[C@H](NC(=O)[C@@H](NC(=O)c1cccc(Cl)c1Cl)C(C)(C)C)C(=O)N[C@H](C(=O)N[C@H](C(=O)N[C@H](C(=O)NCC(=O)N1CCC[C@H]1C(=O)N[C@@H](Cc1c[nH]cn1)C(=O)N[C@@H](CCC(=O)O)C(=O)N[C@@H](CCC(=O)O)C(=O)N[C@@H](Cc1ccc(O)cc1)C(=O)N[C@@H](CCCCNC(=S)Nc1ccc2c(c1)C(=O)OC21c2ccc(O)cc2Oc2cc(O)ccc21)C(N)=O)[C@@H](C)O)[C@@H](C)CC)C(C)(C)C [Peptide 9] ({Benzoyl(2,3-Cl2)}-[Tle]I[Tle]ITGPHEEYK(FITC)-NH2) gave a Kd (Calcineurin (GST-CN); KD (nM)) of 32 to 189 nM.
With CC[C@H](C)[C@H](NC(=O)[C@@H](NC(=O)c1cccc(Cl)c1Cl)C(C)(C)C)C(=O)N[C@H](C(=O)N[C@H](C(=O)N[C@H](C(=O)N[C@@H](Cc1ccc(O)cc1)C(=O)N[C@H](CCC(=O)O)C(=O)N[C@@H](Cc1ccc(F)cc1)C(=O)NCC(=O)NCCC(=O)N[C@@H](CCCCNC(=S)Nc1ccc2c(c1)C(=O)OC21c2ccc(O)cc2Oc2cc(O)ccc21)C(N)=O)[C@@H](C)O)[C@@H](C)CC)C(C)(C)C [Peptide 13, Dcb-ZIZIT-Tyr-glu-Fpa-Gly-βAla-Lys (FITC)] ({Benzoyl(2,3-Cl2)}-[Tle]I[Tle]ITY[dE][Phe(4-F)]G[βAla]K(FITC)-NH2; C-terminus assumed) the “aqueous solubility (qualitative)” value [1] was “good aqueous solubility”.
In the case of CC[C@H](C)[C@H](NC(=O)[C@@H](NC(=O)c1ccc(Br)c(Cl)c1)C(C)(C)C)C(=O)N[C@H](C(=O)N[C@H](C(=O)N[C@H](C(=O)NCC(=O)N1CCC[C@H]1C(=O)N[C@@H](Cc1c[nH]cn1)C(=O)N[C@@H](CCC(=O)O)C(=O)N[C@@H](CCC(=O)O)C(=O)N[C@@H](Cc1ccc(O)cc1)C(=O)N[C@@H](CCCCNC(=S)Nc1ccc2c(c1)C(=O)OC21c2ccc(O)cc2Oc2cc(O)ccc21)C(N)=O)[C@@H](C)O)[C@@H](C)CC)C(C)(C)C [Peptide 10] (X6-[Tle]I[Tle]ITGPHEEYK(FITC)-NH2), the Kd (Calcineurin (GST-CN); read-out: KD) is reported as 32 to 189 nM.
For CC(C)CN(C[C@@H](O)[C@H](Cc1ccccc1)NC(=O)O[C@H]1CCOC1)S(=O)(=O)c1ccc(N)cc1 [Amprenavir, reference compound], the “Pgp Substrate” value (Caco-2 cell monolayers) was “Yes”.
Compound CC[C@H](C)[C@H](NC(=O)[C@@H](NC(=O)c1ccc(C)c(F)c1F)C(C)(C)C)C(=O)N[C@H](C(=O)N[C@H](C(=O)N[C@H](C(=O)NCC(=O)N1CCC[C@H]1C(=O)N[C@@H](Cc1c[nH]cn1)C(=O)N[C@@H](CCC(=O)O)C(=O)N[C@@H](CCC(=O)O)C(=O)N[C@@H](Cc1ccc(O)cc1)C(=O)N[C@@H](CCCCNC(=S)Nc1ccc2c(c1)C(=O)OC21c2ccc(O)cc2Oc2cc(O)ccc21)C(N)=O)[C@@H](C)O)[C@@H](C)CC)C(C)(C)C [Peptide 8] (X5-[Tle]I[Tle]ITGPHEEYK(FITC)-NH2) has a Kd (Calcineurin (GST-CN); read-out: KD) of 32 to 189 nM.
For CC[C@H](C)[C@H](NC(=O)[C@@H](NC(=O)c1cccc(Cl)c1Cl)C(C)(C)C)C(=O)N[C@H](C(=O)N[C@H](C(=O)N[C@H](C(=O)NCCOCCOCC(=O)N[C@@H](CCCCNC(=S)Nc1ccc2c(c1)C(=O)OC21c2ccc(O)cc2Oc2cc(O)ccc21)C(N)=O)[C@@H](C)O)[C@@H](C)CC)C(C)(C)C [Peptide 12, Dcb-ZIZIT-miniPEG-Lys (FITC)] ({Benzoyl(2,3-Cl2)}-[Tle]I[Tle]IT[AEEA]K(FITC)-NH2; C-terminus assumed), the “decrease in binding affinity on removal of C-terminal pentapeptide (GPHEE)” value (Calcineurin (GST-CN); peptide 12 versus peptide 9) was 17 fold.
In the case of CC[C@H](C)[C@H](NC(=O)[C@@H](NC(=O)c1cccc(Cl)c1Cl)C(C)(C)C)C(=O)N[C@H](C(=O)N[C@H](C(=O)N[C@H](C(=O)N[C@@H](CCC(N)=O)C(=O)N[C@@H](Cc1c[nH]cn1)C(=O)N[C@H](CC(C)C)C(=O)N[C@@H](CO)C(=O)NCCC(=O)N[C@@H](CCCCNC(=S)Nc1ccc2c(c1)C(=O)OC21c2ccc(O)cc2Oc2cc(O)ccc21)C(N)=O)[C@@H](C)O)[C@@H](C)CC)C(C)(C)C [Peptide 14, Dcb-ZIZIT-Gln-His-leu-Ser-βAla-Lys (FITC)] ({Benzoyl(2,3-Cl2)}-[Tle]I[Tle]ITQH[dL]S[βAla]K(FITC)-NH2; C-terminus assumed), the “aqueous solubility (qualitative)” value [1] is reported as “good aqueous solubility”.
In the case of CC[C@H](C)[C@H](NC(=O)[C@@H](NC(=O)c1cccc(Cl)c1Cl)C(C)(C)C)C(=O)N[C@H](C(=O)N[C@H](C(=O)N[C@H](C(=O)N[C@@H](CCC(N)=O)C(=O)N[C@@H](Cc1c[nH]cn1)C(=O)N[C@H](CC(C)C)C(=O)N[C@@H](Cc1c[nH]cn1)C(=O)NCCC(=O)N[C@@H](CCCCNC(=S)Nc1ccc2c(c1)C(=O)OC21c2ccc(O)cc2Oc2cc(O)ccc21)C(N)=O)[C@@H](C)O)[C@@H](C)CC)C(C)(C)C [Peptide 15, Dcb-ZIZIT-Gln-His-leu-His-βAla-Lys (FITC)] ({Benzoyl(2,3-Cl2)}-[Tle]I[Tle]ITQH[dL]H[βAla]K(FITC)-NH2; C-terminus assumed), the “aqueous solubility (qualitative)” value [1] is reported as “lower solubility”.
With “VIVIT: VIVIT (SEQ ID NO: 2) peptide, a CNBM blocking NFAT (Description: CN binding motif)” the “half-life in human serum” value (Serum stability assay) was roughly 1 h and the “time to complete degradation in human serum” value (Serum stability assay) was no more than 6 h.
CC[C@H](C)[C@H](NC(=O)[C@@H](NC(=O)c1cc(F)c(F)c(F)c1F)C(C)(C)C)C(=O)N[C@H](C(=O)N[C@H](C(=O)N[C@H](C(=O)NCC(=O)N1CCC[C@H]1C(=O)N[C@@H](Cc1c[nH]cn1)C(=O)N[C@@H](CCC(=O)O)C(=O)N[C@@H](CCC(=O)O)C(=O)N[C@@H](Cc1ccc(O)cc1)C(=O)N[C@@H](CCCCNC(=S)Nc1ccc2c(c1)C(=O)OC21c2ccc(O)cc2Oc2cc(O)ccc21)C(N)=O)[C@@H](C)O)[C@@H](C)CC)C(C)(C)C [Peptide 7] (X4-[Tle]I[Tle]ITGPHEEYK(FITC)-NH2) gave a Kd (Calcineurin (GST-CN); KD (nM)) of 32 to 189 nM.
